Residues, ends and D or L forms follow the SMILES beside them. *: point of attachment. Tos = Cc1ccc(S(=O)(=O)*)cc1
SMILES	melting point [°C]
COc1ccccc1Oc1c(NS(=O)(=O)c2ccc(C(C)(C)C)cc2)nc(NCCN(C)C)nc1OCCOc1ncc(Br)cn1	129 to 132
Cc1ccc(C2=CCCNC2)nc1C	102 to 104
O=C(O)COc1c(-c2cc(Cl)cc(Cl)c2)cc(C(=O)NCCCCCCc2ccccc2)cc1-c1cc(Cl)cc(Cl)c1	151 to 159
COc1ccc2c(c1)CCC1C2CCC2(C)C(=O)CC(C)C12 (stereo unspecified)	127 to 129
Cc1nnsc1C(=O)Nc1ccccc1C(=O)O	223
CCCCn1c(=O)[nH]c(C(F)(F)F)c(Cl)c1=O	138 to 139
O=[N+]([O-])c1ccc(OCc2ccccc2)c2cnsc12	158 to 160
Cc1nc2c([nH]1)C(=O)c1ccccc1C2=O	> 260
C[C@@H]1C(=O)N(CC(=O)CCc2ccccc2)[C@H]1SCc1ccccc1 (relative stereo)	69 to 71
Cc1ccc(NC(=O)c2cccc(C(F)(F)F)c2)cc1NC(=O)N(C)c1cc(Nc2ccc(N3CCN(C)CC3)cc2)ncn1	190 to 191
CONCc1nc2c(N)nc3cc(OCc4ccccc4)ccc3c2n1CC1CCOCC1	190 to 193
CCOC(=O)Cc1c2c(nn1CC)c(=O)[nH]c1ccccc12	233 to 235
CCCNS(=O)(=O)c1nc2ccc(OCC)cc2s1	112 to 113
CCCCCC(=O)Nc1nnc(C)s1	203
CN1CCCC1=NC(=O)Nc1c(Cl)cc(Cl)cc1Cl	160 to 162
COc1ccc(C(=O)Nc2ccc(F)cc2)cc1NS(=O)(=O)c1ccc([N+](=O)[O-])cc1	208 to 211
Cc1cc(OCc2ccccc2)c2cc(C(=O)O)[nH]c2c1	178 to 180
COC(=O)C1CN1C(c1ccccc1)(c1ccccc1)c1ccccc1 (stereo unspecified)	127 to 128
O=[N+]([O-])c1ccc(CS(=O)(=O)CCO)c(CS(=O)(=O)CCO)c1	126 to 128
CCOc1cc(-c2c(C(=O)OC)c(C(=O)OC)c(O)c3cc(OC)c(OC)c(OC)c23)ccc1OC	158
COc1cc2ncnc(N3CCN(C(=O)NCc4ccc(C(C)C)cc4)CC3)c2cc1OC	135 to 136
CCOc1cc2c(c3c1OC(C)(C)C3)C(c1ccccc1)=NC(C)(CN1C(=O)c3ccccc3C1=O)C2 (stereo unspecified)	187 to 189
O=c1[nH]c2cc(Cl)ccc2c(=O)n1Cc1ccc(Br)cc1F	288 to 289
Cc1cc(N2CCN(C(=O)NCCCCC3CCSS3)CC2)ccc1N=C(N)c1cccs1 (stereo unspecified)	169 to 171

SMILES	melting point [°C]
CCCCCCn1c(-c2ccc3c(c2)OCO3)nc2ccccc21	60.5 to 61.6
COc1ccc(-c2nc(N)ncc2-c2ccc(=O)[nH]n2)cc1	142
Cc1cc2c(cc1-c1ccc(F)cc1)NC(=O)CC(c1cccc(-n3ccnc3)c1)=N2	196
CC(C)=CCCC(C)CCOCC(=O)c1cc(C(C)C)c(O)c(C(C)C)c1 (stereo unspecified)	37 to 39
C=CCOc1ccccc1NC=C1C(=O)N(c2ccc(C(=O)O)cc2)N=C1C	240
CC(C)NC(=NC(=O)OCc1ccccc1)N=C1NC(=O)C(=O)N1c1ccc(Cl)c(Cl)c1	211
CCOC(=O)c1cn(C[C@@H]2CN(c3ccc(N4CCC(=CC#N)CC4)c(F)c3)C(=O)O2)nn1	164 to 166
CCCCOCCOc1ccc(-c2ccc3c(c2)C=C(C(=O)O)CCN3C(=O)CNC(C)=O)cc1	196 to 201
CCOC(=O)Cc1ccc(NC(=O)C(COc2cccc(Cl)c2)NS(=O)(=O)c2ccc(Cl)cc2)cc1 (racemic)	173 to 174
O=C1OC(=O)c2nc3ccc(OC(F)F)cc3cc21	158
Nc1ccccc1C(=O)c1cccc(O)c1	130 to 132
C[C@H](c1ccccc1)N1CC(=NO)C2(CCC2)C1=O	203 to 208
COC(=O)c1cc(CCCc2cc3c(=O)[nH]c(N)nc3[nH]2)cs1	182 to 183
O=c1[nH]c2ccccc2c(=O)n1CCCCCn1ccnc1	160 to 162
Cc1nc(CC2OC(COC(=O)c3ccccc3)C(O)C2O)n2nc(Cl)ccc12 (stereo unspecified)	155 to 157
NC1COC2=CC3=C(OCCC3)C(=O)C21 (stereo unspecified)	> 260
CC(C)C(=O)N=c1ccn(-c2ccccc2)nc1	138
O=C1CCC(N2Cc3c(OCc4ccc(CN5CCc6cc(F)ccc6C5)cc4)cccc3C2=O)C(=O)N1 (stereo unspecified)	123 to 125
CC1(C)C(=O)Nc2ccc(-c3cccc(C#N)c3)cc21	200 to 202
CC(C)(C)c1cc(OC(=O)c2ccccc2)ccc1O	120 to 121
C#CCn1cc(C#N)c(C=O)c1	114
COc1cc2c(cc1OC)CN(c1c(C)c(C)c3c(c1C)C(c1ccccc1)C(C)(C)O3)C2 (stereo unspecified)	154 to 157
Cc1ccc(NC(=O)c2c(Cl)cccc2Cl)c2nccc(Cl)c12	258 to 260
CC(C)CNc1c([N+](=O)[O-])cnc2cc(Br)cnc12	114 to 115

SMILES	melting point [°C]
CCC1CCc2c(sc3cc(OCc4ccccc4)ccc3c2=O)C1 (stereo unspecified)	94
c1ccc2c(c1)CCC(n1ccnc1)C2 (stereo unspecified)	93 to 95
COc1ccc(S(=O)(=O)C(CCc2ccccc2)CC(=O)O)cc1OC (stereo unspecified)	161 to 162
COC(=O)c1c(Cl)cc(Cl)cc1NC(=O)CSc1ccccc1OC	93 to 94
Cc1ccc(S(=O)(=O)N2CCC[C@H]2C(=O)N[C@@H](CC(=O)O)C(=O)O)cc1 (Tos-Pro-Asp-OH)	153 to 155
O=C(Nc1nccs1)c1nc(-c2ccc(N3CCOCC3)cc2)[nH]c1-c1ccc(Cl)cc1	> 260
O=C(O)c1ccc2c(c1)C=C(Cn1ccnc1)CO2	258 to 259
CCCCCN1C(=O)C(N)(CC(=O)c2cccs2)c2ccccc21 (stereo unspecified)	167 to 169
COc1ccc(C2(c3ccc(O)c(C)c3)c3ccccc3-c3ccccc32)cc1	186 to 188
CCCCCN(CCCCC)C(=O)CCCCC(=O)O	152
CC(C(=O)O)S(=O)(=O)c1ccc2c(-c3ccccc3F)noc2c1Cl (stereo unspecified)	220 to 225
O=C(c1ccc(F)cc1)c1nc[nH]n1	225 to 230
N#Cc1cc(N)ccc1N	85 to 87
N#CC1(CCCCCCCCCCCCC2(C(=O)O)CC2)CC1	44.4 to 46.9
NC1=NN(c2ccc(Cl)c(Cl)c2)CC1	182 to 184
CC(C)(O)C1C(=O)N2C(C(=O)OCc3ccccc3)=C(Sc3ccccc3)CC12 (stereo unspecified)	133 to 136
CCC1(C)OC(c2ccc(S(N)(=O)=O)cc2)=C(c2ccsc2)C1=O (stereo unspecified)	120 to 121
Cn1cc(C(=O)Nc2ccccc2-c2ccc(Br)cc2)c(C(F)(F)F)c1	163 to 164
CCOC(=O)c1c(C)c(C(=O)C(C#N)C(=O)Nc2ccccc2)n(C)c1C (stereo unspecified)	164 to 166
N#Cc1cccc2c1ccn2-c1ncc(C(F)(F)F)cc1Cl	109 to 111
O=S1(=O)N=CN(C2CC2)c2c1ccc(F)c2Cl	147 to 148
COc1ccc(N2CCN(c3ccc(-n4c(C)nnc4S)cc3)CC2)cc1	260
CN(Cc1ccc(NC(=O)C2=Cc3cc(-c4ccc(N5CCCCC5)cc4)ccc3CCC2)cc1)C1CCOCC1	170 to 171

— a melting point compilation (Tetko et al.; mined from patent text by program, amines drawn as free bases though some values may be those of a salt)
